Consider one compound from US20220117938A1, “COMBINATON THERAPY WITH A DON PRODRUG AND AN IMMUNE CHECKPOINT INHIBITOR” (DRACEN PHARMACEUTICALS, INC., priority 2019, published 2022).

The data set deals with H22 tumors. Briefly: Anti-tumor efficacy of Compound 1 with and without anti-PD-L1 in the H22 subcutaneous syngeneic model (Example 6). The data set is classed as in vivo, mice. The procedure:
Female BALB/c mice were inoculated subcutaneously at right flank with H22 tumor cells for tumor development. Treatment began on Day 6 post tumor inoculation and the mice were treated for 21 days. Tumor and weight measurements were continued for the duration of the study, and the survival was recorded until Day 106. The results are summarized Table 6-1, Table 6-2, and FIG. 23. In all cases the dosing volume was 10 ml/kg. PD-L1 antibody was obtained from Bioxcell.

Setting [1] is: 0.7 mg/kg 5-day ON 2-day OFF x 3 cycles.
Setting [2] is: 1.4 mg/kg 5-day ON 2-day OFF x 3 cycles.
The mark [3] stands for this setting: Day 26, 0.7 mg/kg 5-day ON 2-day OFF x 3 cycles.
[4] abbreviates: Day 26, 1.4 mg/kg 5-day ON 2-day OFF x 3 cycles.

Regarding `CC(=O)N[C@@H](Cc1c[nH]c2ccccc12)C(=O)N[C@@H](CCC(=O)C=[N+]=[N-])C(=O)OC(C)C` [Compound 1, Isopropyl (S)-2-((S)-2-acetamido-3-(1H-indol-3-yl)propanamido)-6-diazo-5-oxohexanoate], the “Cure Rate” value under setting [1] is recorded as 0% and the “Cure Rate” value under setting [2] is 0%. Further, the MST under setting [1] is 45 days and the MST under setting [2] turned out to be 47 days. Moreover, the TGI (Compound 1 alone 0.7 mg/kg, p<0.001) is reported as roughly 80%; the TGI (Compound 1 alone 1.4 mg/kg, p<0.001) was roughly 80%; the TGI under setting [3] was 79%; the TGI under setting [4] is given as 82%. Besides, the BWC reads like this: under setting [3], 0%; under setting [4], 7%. Besides, the “Mean Tumor Vol” value is, setting by setting: under setting [3], 529 ± 64 mm^3; under setting [4], 465 ± 133 mm^3.
